Test results: patent US20100119599A1 (ARCHER PHARMACEUTICALS, INC., priority 2006, published 2010)

How the values were obtained:
Aβ1-40 = assay: Measurement of Aβ1-40 in culture medium of 7W WT APP751 CHO cells by ELISA; assay type: cell-based, Chinese hamster; settings: for Aβ1-40 (% of control): CHO cells that overexpress APP751, zero = below the detection limit of the assay; for activity at 5 µM: Cricetulus griseus, Table 1, 5 μM test compound, CHO cells stably transfected with human APP751, culture medium, ELISA, control DMSO, 0 = no detectable amount
Aβ1-42 = assay: Measurement of Aβ1-42 in culture medium of 7W WT APP751 CHO cells by ELISA; assay type: cell-based, Chinese hamster; settings: for Aβ1-42 (% of control): CHO cells that overexpress APP751, zero = below the detection limit of the assay; for activity at 5 µM: Cricetulus griseus, Table 1, 5 μM test compound, CHO cells stably transfected with human APP751, culture medium, ELISA, control DMSO, 0 = no detectable amount, read-out: Aβ1-42 (% of control)
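Note: 5 µM test compound but RI-coded compounds at 10 µM for 24 hours.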

SMILES | Aβ1-40 (% of control) (Aβ1-40) | Aβ1-42 (% of control) (Aβ1-42) | activity at 5 µM (Aβ1-40) [%] | activity at 5 µM (Aβ1-42) [%]
CC1=C(C(=O)Nc2ccccc2)C(c2cccs2)C(C#N)=C(SCC(=O)NCc2ccc(Br)cc2)N1 (stereo not shown) [RI_20] | 45.6 % of control | 41.9 % of control |  | 
CC1(C)CC(=O)C2=C(C1)N(c1cc(C(F)(F)F)ccc1Cl)C(N)=C(C#N)C2c1ccc(Br)s1 (stereo not shown) [ST046868, 2-amino-4-(5-bromo(2-thienyl))-1-[2-chloro-5-(trifluoromethyl)phenyl]-7,7-dimethyl-5-oxo-1,4,6,7,8-pentahydroquinoline-3-carbonitrile] |  |  | 29.8 | 84
CCCOc1ccccc1C1C(C(=O)OCc2ccccc2)=C(C)NC2=C1C(=O)CCC2 (stereo not shown) [ST014957, phenylmethyl 2-methyl-5-oxo-4-(2-propoxyphenyl)-1,4,6,7,8-pentahydroquinoline-3-carboxylate] |  |  | 0 | 62.8
CCCc1ccc(NC(=O)CSC2=C(C#N)C(c3ccsc3)C(C(=O)Nc3ccccc3)=C(C)N2)cc1 (stereo not shown) [RI_52] | 50.3 % of control | 61.6 % of control |  | 
COCCOC(=O)C1=C(C)NC2=C(C(=O)CC(c3ccc(OC)cc3)C2)C1c1ccc(Br)cc1 (stereo not shown) [ST017099, 2-methoxyethyl 4-(4-bromophenyl)-7-(4-methoxyphenyl)-2-methyl-5-oxo-1,4,6,7,8-pentahydroquinoline-3-carboxylate] |  |  | 84.5 | 57
CC1=C(C(=O)OCc2ccccc2)C(c2cccs2)C2=C(CCCC2=O)N1 (stereo not shown) [ST017233, phenylmethyl 2-methyl-5-oxo-4-(2-thienyl)-1,4,6,7,8-pentahydroquinoline-3-carboxylate] |  |  | 60.9 | 27.4
COC(=O)C1=C(C)NC2=C(C(=O)CC(c3ccc(Cl)cc3)C2)C1c1ccc(Cl)c(Cl)c1 (stereo not shown) [ST015215, methyl 4-(3,4-dichlorophenyl)-7-(4-chlorophenyl)-2-methyl-5-oxo-1,4,6,7,8-pentahydroquinoline-3-carboxylate] |  |  | 23.1 | 39.8
CCOc1cc(C2C(C(=O)OCCc3ccccc3)=C(C)NC3=C2C(=O)CCC3)cc(Br)c1O (stereo not shown) [ST015061, 2-phenylethyl 4-(3-bromo-5-ethoxy-4-hydroxyphenyl)-2-methyl-5-oxo-1,4,6,7,8-pentahydroquinoline-3-carboxylate] |  |  | 40.8 | 33.5
CCCOCCOC(=O)C1=C(C)NC2=C(C(=O)CC(C)(C)C2)C1c1ccc(Br)cc1 (stereo not shown) [ST052437, 2-propoxyethyl 4-(4-bromophenyl)-2,7,7-trimethyl-5-oxo-1,4,6,7,8-pentahydroquinoline-3-carboxylate] |  |  | 5.31 | 16.5
CCc1cccc(NC(=O)CSC2=C(C#N)C(c3ccc(-c4ccccn4)s3)C(C(=O)Nc3ccccc3)=C(C)N2)c1 (stereo not shown) [RI_86] | 32.8 % of control | 21.8 % of control |  | 
COC(=O)C1=C(C)NC2=C(C(=O)CCC2)C1c1cc(F)ccc1F (stereo not shown) [ST052368, methyl 4-(2,5-difluorophenyl)-2-methyl-5-oxo-1,4,6,7,8-pentahydroquinoline-3-carboxylate] |  |  | 66.3 | 74.2
COc1ccc(C2C(C(=O)OCCOc3ccccc3)=C(C)NC3=C2C(=O)CC(C)(C)C3)cc1O (stereo not shown) [ST052422, 2-phenoxyethyl 4-(3-hydroxy-4-methoxyphenyl)-2,7,7-trimethyl-5-oxo-1,4,6,7,8-pentahydroquinoline-3-carboxylate] |  |  | 38.3 | 44.8
CCCCOC(=O)C1=C(C)NC2=C(C(=O)CC(C)(C)C2)C1c1cccc(I)c1 (stereo not shown) [ST056056, butyl 4-(3-iodophenyl)-2,7,7-trimethyl-5-oxo-1,4,6,7,8-pentahydroquinoline-3-carboxylate] |  |  | 6.56 | 12.3
CC1=C(C(=O)OCCOc2ccccc2)C(c2ccc3c(c2)OCO3)C2=C(CC(C)(C)CC2=O)N1 (stereo not shown) [ST015103, 2-phenoxyethyl 4-(2H-benzo[3,4-d]1,3-dioxolan-5-yl)-2,7,7-trimethyl-5-oxo-1,4,6,7,8-pentahydroquinoline-3-carboxylate] |  |  | 35.3 | 73.5
CC1=C(C(=O)OC2CCCC2)C(c2cccc(Cl)c2)C2=C(CCCC2=O)N1 (stereo not shown) [ST013156, cyclopentyl 4-(3-chlorophenyl)-2-methyl-5-oxo-1,4,6,7,8-pentahydroquinoline-3-carboxylate] |  |  | 0 | 13.7
COCCOC(=O)C1=C(C)NC2=C(C(=O)CC(C)(C)C2)C1c1ccc(C(C)C)cc1 (stereo not shown) [ST052313, 2-methoxyethyl 2,7,7-trimethyl-4-[4-(methylethyl)phenyl]-5-oxo-1,4,6,7,8-pentahydroquinoline-3-carboxylate] |  |  | 26.3 | 23.4
COc1ccc(OC)c(C2C(C#N)=C(C)NC3=C2C(=O)CC(c2ccccc2)C3)c1 (stereo not shown) [ST018638, 4-(2,5-dimethoxyphenyl)-2-methyl-5-oxo-7-phenyl-1,4,6,7,8-pentahydroquinoline-3-carbonitrile] |  |  | 45.4 | 53.8
CCCOc1ccccc1C1C(C(=O)OCC(C)C)=C(C)NC2=C1C(=O)CC(c1ccccc1)C2 (stereo not shown) [ST016984, 2-methylpropyl 2-methyl-5-oxo-7-phenyl-4-(2-propoxyphenyl)-1,4,6,7,8-pentahydroquinoline-3-carboxylate] |  |  | 25.4 | 56.2

SMILES | Aβ1-40 (% of control) (Aβ1-40) | Aβ1-42 (% of control) (Aβ1-42) | activity at 5 µM (Aβ1-40) [%] | activity at 5 µM (Aβ1-42) [%]
CCc1cccc(NC(=O)CSC2=C(C#N)C(c3ccc(Cl)s3)C(C(=O)Nc3ccccc3)=C(C)N2)c1 (stereo not shown) [RI_88] | 70.1 % of control | 54.6 % of control |  | 
N#CC1=C(N)n2c(s/c(=C\c3cccs3)c2=O)=C(C#N)C1c1cccs1 (stereo not shown) [RI_98] | 74.6 % of control | 78.2 % of control |  | 
COC(=O)C1=C(C)NC2=C(C(=O)CC(c3cccs3)C2)C1c1ccc(C)s1 (stereo not shown) [ST052308, methyl 2-methyl-4-(5-methyl(2-thienyl))-5-oxo-7-(2-thienyl)-1,4,6,7,8-pentahydroquinoline-3-carboxylate] |  |  | 48.4 | 74.2
Cc1ccccc1N1C2=C(C(=O)CC(C)(C)C2)C(c2ccccc2)C2=C1c1ccccc1C2=O (stereo not shown) [ST024318, 3,3-dimethyl-5-(2-methylphenyl)-11-phenyl-2,3,4,5,11-pentahydroindeno[3,2-b]quinoline-1,10-dione] |  |  | 64.9 | 99.5
CC1=C(C(=O)Nc2ccc(Cl)cc2)C(c2ccccc2C)C(C#N)=C(SCC(=O)Nc2cccc(C)c2)N1 (stereo not shown) [RI_31] | 53.9 % of control | 73.3 % of control |  | 
CC1=C(C#N)C(c2ccc(Cl)cc2)C2=C(CC(C)(C)CC2=O)N1 (stereo not shown) [ST013410, 4-(4-chlorophenyl)-2,7,7-trimethyl-5-oxo-1,4,6,7,8-pentahydroquinoline-3-carbonitrile] |  |  | 22 | 26
N#CC1=C(N)n2c(s/c(=C\c3ccccc3)c2=O)=C(C#N)C1c1ccccc1 (stereo not shown) [RI_95] | 67.9 % of control | 69.9 % of control |  | 
CC1=C(C(=O)OCCOc2ccccc2)C(c2ccc(C(C)C)cc2)C2=C(CCCC2=O)N1 (stereo not shown) [ST052247, 2-phenoxyethyl 2-methyl-4-[4-(methylethyl)phenyl]-5-oxo-1,4,6,7,8-pentahydroquinoline-3-carboxylate] |  |  | 98 | 64.1
CC1=C(C(=O)Nc2ccc(Cl)cc2)C(c2ccccc2)C(C#N)=C(SCC(=O)Nc2ccc(C)cc2)N1 (stereo not shown) [RI_41] | 36.4 % of control | 30.7 % of control |  | 
CC1=C(C(=O)Nc2ccccc2)C(c2cccs2)C(C#N)=C(SCC(=O)Nc2cccc(Cl)c2)N1 (stereo not shown) [RI_69] | 89.1 % of control | 69.8 % of control |  | 
CCOC(=O)C1=C(C)NC(C)=C(C(=O)OC)C1c1ccc(Br)cc1 (stereo not shown) [ST063245, ethyl 4-(4-bromophenyl)-5-(methoxycarbonyl)-2,6-dimethyl-1,4-dihydropyridine-3-carboxylate] | 8.423 % of control | 0 % of control |  | 
CCOC(=O)C1=C(C)NC2=C(C(=O)CC(c3ccc(OC)cc3)C2)C1c1ccc(OCc2ccccc2)cc1 (stereo not shown) [ST017078, ethyl 7-(4-methoxyphenyl)-2-methyl-5-oxo-4-[4-(phenylmethoxy)phenyl]-1,4,6,7,8-pentahydroquinoline-3-carboxylate] |  |  | 51.8 | 49.4
CCOC(=O)C1=c2s/c(=C/c3ccc(C)s3)c(=O)n2C(N)=C(C#N)C1c1ccc(C)s1 (stereo not shown) [ST011766] | 21.1 % of control | 9.558 % of control |  | 
CCCOc1ccccc1C1C(C(=O)OCC(C)C)=C(C)NC2=C1C(=O)CC(c1ccc(Cl)cc1)C2 (stereo not shown) [ST017026, 2-methylpropyl 7-(4-chlorophenyl)-2-methyl-5-oxo-4-(2-propoxyphenyl)-1,4,6,7,8-pentahydroquinoline-3-carboxylate] |  |  | 40.6 | 80.6
CC1=C(C(=O)OCCc2ccccc2)C(c2ccc([N+](=O)[O-])cc2)C2=C(CC(c3ccccc3)CC2=O)N1 (stereo not shown) [ST015255, 2-phenylethyl 2-methyl-4-(4-nitrophenyl)-5-oxo-7-phenyl-1,4,6,7,8-pentahydroquinoline-3-carboxylate] |  |  | 40.5 | 74.7
CC1=C(C(=O)OCc2ccccc2)C(c2ccccc2Br)C2=C(CC(C)(C)CC2=O)N1 (stereo not shown) [ST216854, phenylmethyl 4-(2-bromophenyl)-2,7,7-trimethyl-5-oxo-1,4,6,7,8-pentahydroquinoline-3-carboxylate] |  |  | 29.4 | 60
CCOC(=O)C1=C(C)NC2=C(C(=O)CCC2)C1c1ccccc1OCc1ccccc1 (stereo not shown) [ST013216, ethyl 2-methyl-5-oxo-4-[2-(phenylmethoxy)phenyl]-1,4,6,7,8-pentahydroquinoline-3-carboxylate] |  |  | 0 | 88.8
